These results are taken from ChEMBL document CHEMBL4190380, “Preliminary in vitro and in vivo investigation of a potent platelet derived growth factor receptor (PDGFR) family kinase inhibitor” (Bioorg Med Chem Lett, 2018).

By IC50 is commonly meant the midpoint of a concentration-inhibition curve. Usually Kd stands for a measure of binding affinity in units of concentration.

Structures are written as SMILES. Active and inactive are the calls of the source. The calls are words filed in the database; no cut-off is given here.

Data set [1] deals with P815. Description: Cytotoxicity in mouse P815 cells expressing KIT D814Y mutant assessed as reduction in cell viability incubated for 48 hrs by MTT assay. It is filed as functional, cell-based. Conditions: P815, 48 h. A general note: Tetrazolium assays rely on reduction of a dye to a coloured formazan, in cell work by metabolically active cells.
The test system of data set [2] is Mast/stem cell growth factor receptor Kit (Mus musculus), P05532 [D814Y]. The data set can be described thus: Inhibition of KIT D814Y mutant in mouse P815 cells assessed as reduction in STAT3 Tyr705 phosphorylation at 500 nM to 5 uM by Western blot method. It is filed as cell-based. Background: In western blotting, separated proteins are transferred to a membrane and probed.
Mast/stem cell growth factor receptor Kit (Mus musculus), P05532 [D814Y], sequence (P05532 with tags, fused parts or gaps D814Y): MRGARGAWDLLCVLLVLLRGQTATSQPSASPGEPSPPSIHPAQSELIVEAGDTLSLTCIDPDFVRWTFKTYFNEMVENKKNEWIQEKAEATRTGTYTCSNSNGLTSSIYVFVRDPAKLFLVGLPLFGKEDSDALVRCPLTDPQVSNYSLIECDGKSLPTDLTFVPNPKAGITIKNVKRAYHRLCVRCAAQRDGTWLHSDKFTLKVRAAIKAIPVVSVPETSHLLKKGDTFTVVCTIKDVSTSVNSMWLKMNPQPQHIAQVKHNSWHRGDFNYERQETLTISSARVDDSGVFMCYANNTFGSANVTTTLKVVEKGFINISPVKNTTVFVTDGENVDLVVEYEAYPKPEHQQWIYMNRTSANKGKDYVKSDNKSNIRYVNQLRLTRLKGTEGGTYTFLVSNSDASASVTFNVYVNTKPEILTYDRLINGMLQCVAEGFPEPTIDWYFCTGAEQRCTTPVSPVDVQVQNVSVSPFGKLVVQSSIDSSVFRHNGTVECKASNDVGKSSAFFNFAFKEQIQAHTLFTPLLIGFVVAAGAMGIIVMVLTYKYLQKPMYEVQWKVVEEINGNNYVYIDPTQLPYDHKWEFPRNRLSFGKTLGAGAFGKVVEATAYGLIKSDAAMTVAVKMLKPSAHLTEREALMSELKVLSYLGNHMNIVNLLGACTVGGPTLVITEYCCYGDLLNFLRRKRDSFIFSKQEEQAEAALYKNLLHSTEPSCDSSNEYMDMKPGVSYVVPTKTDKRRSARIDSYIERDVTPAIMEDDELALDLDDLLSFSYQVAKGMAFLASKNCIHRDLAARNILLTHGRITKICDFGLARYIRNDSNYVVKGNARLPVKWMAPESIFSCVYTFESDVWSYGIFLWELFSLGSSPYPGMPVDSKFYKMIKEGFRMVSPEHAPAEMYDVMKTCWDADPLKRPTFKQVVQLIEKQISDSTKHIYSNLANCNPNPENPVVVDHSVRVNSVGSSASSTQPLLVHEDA

Data set [3] has as its target Platelet-derived growth factor receptor beta (Homo sapiens, UniProt P09619). The data set can be described thus: Binding affinity to PDGFRbeta (unknown origin).
Data set [4] relates to Mus musculus. Description: In-vivo suppression of KIT signalling in C57BL/6 mouse assessed as hair depigmentation at 75 mg/kg, ip administered once daily for 17 days by photography. Format: functional, organism-based.
Data set [5] concerns P815. The data set can be described thus: Toxicity in mouse P815 cells expressing KIT D814Y mutant assessed as reduction in total STAT3 protein level at 5 uM by Western blot method. The following applies: p815, 5 µM. It is filed as cell-based.
Data set [6] deals with P815. The data set can be described thus: Induction of apoptosis in mouse P815 cells expressing KIT D814Y mutant assessed as reduction in pro-caspase-3 protein level at 500 nM to 5 uM by Western blot method. Format: functional, cell-based.
Data set [7] concerns Mus musculus. Description: Toxicity in C57BL/6 mouse assessed as body weight loss at 75 mg/kg, ip for 17 days. Conditions: in vivo, 408 h. Format: organism-based.
The subject of data set [8] is Mus musculus. Description: In-vivo suppression of PDGFR signalling in C57BL/6 mouse assessed as retardation of hair re-growth at 75 mg/kg, ip administered once daily for 17 days by photography. Format: functional, organism-based.
In data set [9] the test system is Mus musculus. The data set can be described thus: Toxicity in C57BL/6 mouse assessed as induction of mouse mortality at 400 mg/kg, ip for 17 days measured on day 0. It is filed as organism-based. Conditions: in vivo, 408 h.

Platelet-derived growth factor receptor beta, sequence (P09619 whole entry): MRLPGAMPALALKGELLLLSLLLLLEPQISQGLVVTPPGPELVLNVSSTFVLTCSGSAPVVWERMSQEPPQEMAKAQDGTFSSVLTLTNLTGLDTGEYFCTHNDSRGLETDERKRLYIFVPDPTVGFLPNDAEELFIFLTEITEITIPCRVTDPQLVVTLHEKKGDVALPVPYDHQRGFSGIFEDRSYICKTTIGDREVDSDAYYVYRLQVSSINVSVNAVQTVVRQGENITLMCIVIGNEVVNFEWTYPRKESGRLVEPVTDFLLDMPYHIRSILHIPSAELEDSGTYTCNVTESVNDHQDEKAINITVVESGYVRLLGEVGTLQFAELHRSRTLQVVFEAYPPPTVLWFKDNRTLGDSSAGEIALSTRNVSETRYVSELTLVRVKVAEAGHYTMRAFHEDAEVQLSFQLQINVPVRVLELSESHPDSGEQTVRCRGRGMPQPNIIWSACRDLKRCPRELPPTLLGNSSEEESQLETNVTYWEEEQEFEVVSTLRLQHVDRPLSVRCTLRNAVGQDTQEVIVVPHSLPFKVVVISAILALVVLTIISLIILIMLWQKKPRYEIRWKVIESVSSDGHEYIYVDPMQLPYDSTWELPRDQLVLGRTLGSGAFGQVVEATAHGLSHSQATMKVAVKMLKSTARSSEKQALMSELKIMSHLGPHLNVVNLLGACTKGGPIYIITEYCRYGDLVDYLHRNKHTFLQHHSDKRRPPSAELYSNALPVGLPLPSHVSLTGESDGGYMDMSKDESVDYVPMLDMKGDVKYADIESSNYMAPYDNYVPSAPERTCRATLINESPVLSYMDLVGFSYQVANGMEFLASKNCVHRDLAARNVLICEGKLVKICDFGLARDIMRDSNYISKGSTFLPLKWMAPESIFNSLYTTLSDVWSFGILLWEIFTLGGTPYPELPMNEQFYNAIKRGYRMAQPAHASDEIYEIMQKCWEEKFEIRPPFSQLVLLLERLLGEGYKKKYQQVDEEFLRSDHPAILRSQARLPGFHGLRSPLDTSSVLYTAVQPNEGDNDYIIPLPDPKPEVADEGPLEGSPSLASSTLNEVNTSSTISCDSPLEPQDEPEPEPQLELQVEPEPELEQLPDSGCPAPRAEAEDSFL

Consider `COc1cc2c(N3CCN(C(=O)Nc4ccc(OC(C)C)cc4)CC3)ncnc2cc1OCCCN1CCCCC1` [TANDUTINIB], for which the IC50 in the data set on P815 [1] was 600 nM.
As for `COCCOc1cc2ncnc(N3CCN(c4ncc(Cc5ccccc5)cn4)CC3)c2cc1OCCOC`, the inhibition result in data set [2] was “Active”. In data set [3], this molecule yielded a Kd of 8 nM. Further, the result with Mus musculus [4] was inactive. The Activity entry in the data set on P815 [5] is “Toxic”; in the data set with P815 [6] it was “Dose-dependent effect”; in the data set with Mus musculus [7] it was 10%; in the data set on Mus musculus [9], “Toxic”. Besides, in the data set with P815 [1], the IC50 was determined as 182 nM. For the same molecule, the outcome with Mus musculus [8] was Active.
